What was measured:
[1] = system: rat with hepatic fibrosis induced by dimethylnitrosamine; assay: Effect on rat with hepatic fibrosis induced by dimethylnitrosamine; type: in vivo; details: 30 mg/kg orally every day for 4 weeks, male Wistar rats, liver, 5 rats
Experimental: 1% Dimethylnitrosamine (100 μl/100 g rat body weight) was intraperitoneally administered to male Wistar rats for 3 consecutive days per week for 4 weeks (12 times in total) to prepare a hepatic fibrosis model rat. To the Y-27632 administration group, Y-27632 (30 mg/kg) was orally administered every day for 4 weeks from the day when the dimethylnitrosamine administration was started. To the control group, physiological saline was administered. Four weeks later, the liver was removed and the level of fibrogenesis of the tissue, collagen content and hydroxyproline amount were measured.
The level of fibrogenesis was measured as follows. A part of the removed liver was fixed with a formalin solution overnight, and a paraffin embedded piece was prepared and stained by Masson trichrome stain. The stained images were input in a computer through a digital camera (Fujix HC-1000, Fuji Film, Tokyo, Japan) and, using a computer-assisted morphometric analyzer (MacScope, Mitani corporation, Fukui, Japan), the area ratio of the collagen portion stained in bright green was determined as the degree of fibrogenesis.
The amout of tissue collagen was measured as follows according to the method of Shiba et al. (Shiba M, et al. Liver, 1998, Jun; 18(3): 196-204). That is, a part of the removed liver was homogenized with a 33-fold amount (ml/g) of 0.5M aqueous acetic acid solution in a Polytron PCU-2 homogenizer (Kinematica, Luzern, Switzerland). The homogenate was subjected to ultrasonication treatment for 2 min after freeze-thawing. After extraction with an acid, a fraction containing insoluble collagen was heated at 80° C. for 60 minutes to convert the insoluble collagen to water-soluble gelatin. The amount of gelatin was measured with a Sircol collagen assay kit (Biocolor, Belfast, Northern Ireland).
The amount of hydroxyproline was measured as follows. […] The amount of hydroxyproline was measured according to the method of Fujiwara et al. (Fujiwara et al., Anal. Biochem., 1987; 166: 72-8) with a high performance liquid chromatography system (SRL Inc., Tachikawa, Japan).

[2] = system: Hepatic stellate cells (HSC); assay: Effect on cell morphology of hepatic stellate cell; type: cell-based, rat; details: Y-27632 30 μM, DMEM with 1% FCS, one hour, phase contrast microscope
Experimental: Hepatic stellate cells (HSC) were prepared from the liver of male Wistar rat according to the method of Friedman et al (Friedman S. L, et al., Proc Natl Acad Sci USA 1985; 82: 8681-8685). HSC were cultured in Dulbecco's modified Eagle's medium (DMEM) containing 20% fetal calf serum (FCS) and the cells after 3 to 8 passages were used. HSC to be subjected to the experiment were sown in a dish treated with fibronectin (10 μg/ml), cultured in DMEM medium containing 20% FCS for 24 hours and changed to DMEM medium containing 1% FCS or DMEM medium containing Y-27632 (30 μM) and 1% FCS. One hour later, HSC were fixed with a 3.7% formaldehyde solution and observed under a phase contrast microscope.

[3] = system: Hepatic stellate cells (HSC); assay: Effect on production of collagen I in hepatic stellate cells (ELISA); type: cell-based, rat; details: Y-27632 30 μM, DMEM without FCS, 48 hours of culture, n=4
Experimental: In the same manner as in Experimental Example 1, HSC were prepared from rat liver and cultured in DMEM medium containing 20% FCS for 8 days and changed to DMEM medium without FCS or DMEM medium containing Y-27632 (30 μM) but without FCS. After 48 hours of culture, the amount of collagen I contained in the supernatant was measured by ELISA (enzyme-linked immunosorbent assay) (Moshage H, et al., Hepatology 1990; 12: 511-518). As a result, the amount was 19.5±3.0 μg/μg DNA for the group without Y-27632 and 8.2±2.3 μg/μg DNA for the group with the addition of Y-27632, showing a significant low level for the group with the addition of Y-27632 (p<0.01, n=4).

## C[C@@H](N)[C@H]1CC[C@H](C(=O)Nc2ccncc2)CC1 [Compound Y-27632, (+)-trans-4-(1-aminoethyl)-1-(4-pyridylcarbamoyl)cyclohexane 2HCl·H2O]
[1]
  content of collagen in the tissue: 601.3±67.7 μg/100 mg-rat liver weight
  content of hydroxyproline in the tissue: 29.8±9.1 μmol/g-rat liver weight
  level of fibrogenesis (area ratio of collagen portion, Masson trichrome stain): 6.3±0.7%
[2]
  cell morphology of hepatic stellate cells: spindle-like shape with dendroidal protrusions (non-active type)
[3]
  amount of collagen I contained in the supernatant: 8.2±2.3 μg/μg DNA

Source: patent US6794398B1, “Preventive/remedies for liver diseases” (Mitsubishi Pharma Corporation, priority 1999, dated 2004)
